From patent publication US20250302846A1, “ANTIBIOTIC COMPOSITION AND METHODS OF USE THEREOF” (THE REGENTS OF THE UNIVERSITY OF COLORADO A BODY CORPORATE, priority 2022, published 2025) come the findings set out here.

As a reminder, the solubility is the dissolved amount per volume that the medium holds. A high value points to much dissolved substance. One may read the MIC as the least concentration at which growth counts as inhibited. Higher therefore signals a need for much substance.

One series deals with S. aureus FDA209. Kind of series: Membrane permeability by PI fluorescence. The series is classed as cell-based. To be noted: mid-log S. aureus FDA209. As to the method: Mid-log phase S. aureus FDA209 cells were used for all experiments. A) Membrane fluidity was evaluated with a Laurdan generalized polarization (GP) assay. Cells were exposed at time 0 to DMSO, benzyl alcohol (BnOH, a membrane fluidizer [50 mM]), or D66 (1x MIC95=130 μM). Mean and SEM of three biological replicates performed with technical triplicates. B) Membrane permeability was monitored by PI fluorescence. Cells were exposed at time 0 to DMSO, SDS [0.3%], or D66. Samples were processed at the timepoints shown. Mean and SEM of three biological replicates performed with technical triplicates. C) Intracellular pH was monitored with the fluorescent probe BCECF-AM. Cells were exposed at time 0 to DMSO, the protonophore CCCP [100 μM], or D66. Mean and SEM of three biological replicates performed with technical triplicates. D) Intracellular ATP levels measured using the Promega BacTiter-Glo kit after 30 minutes of treatment with DMSO, chloramphenicol (Chlor), or D66. Mean and SEM of three biological replicates performed with technical triplicates. E) Respiration rates of cells incubated with resazurin and treated at time 0 as indicated. Mean and […]

In a further series the test system is S. Typhimurium. Kind of series: Growth curves and kill curves. The format is cell-based. To be noted: outer-membrane perturbing conditions, D66 at 2x MIC, LB or MHB, 18 hours. The method, then: FIG. 3A-F. D66 rapidly perturbs the bacterial cytoplasmic membrane with minor disruption of barrier function. Mid-log phase S. Typhimurium cells grown in LB with 0.5 μg/mL PMB were used for all experiments. A) Cell membrane potential was monitored with the fluorescent dye DiSC3 (5). Cells were treated at time 0 with DMSO, JD1 [70 μM], or D66. Data were normalized to DMSO at time 0 and corrected for the quenching effect of D66 (FIG. 6A, B) B) Cell membrane permeability was monitored by PI fluorescence. Cells were treated at time 0 with DMSO, SDS [0.005%] or D66. Samples were processed at the time points shown. A one-way ANOVA with a Dunnet's multiple comparison test, * P<0.005. C-F) Growth curves and kill-curves of cells treated at time 0 with either DMSO or D66. Culture aliquots were monitored for OD600 (C, E) or plated for enumeration of CFU (D, F). Data are presented as fold change. Mean and SEM of three biological replicates with technical triplicates are shown in all panels.
Growth curves and kill curves: Mid-log phase cultures were sampled at time 0 and then compound or vehicle control (DMSO) was added. Cultures were incubated at 37° C. with agitation. At the time intervals indicated, aliquots were monitored for OD600 and plated for CFU enumeration. Data for OD600 and CFU/mL were normalized to time 0.

A short description of series [1]: Solubility limit in assay medium. The series is classed as physicochemical. To be noted: bacterial growth broth (LB or MHB), 37 °C, plasma or biological fluid, kinetic from dmso stock, final DMSO at or below 2%.
The next series concerns S. aureus (FDA209). Kind of series: Membrane voltage with DiSC3(5) in Gram-positive bacteria. The series is classed as cell-based. To be noted: mid-log S. aureus FDA209 in LB. As to the method: (§1) A) D66 quenches the fluorescent dye DiSC3 (5) in a dose-dependent manner. Data were normalized to DMSO at time 0. Relative fluorescent units (RFU). Mean and SEM of three biological replicates performed with technical triplicates. B, C) Mid-log phase S. aureus (FDA209) in LB were treated at time 0 with DMSO, gramicidin [2 μg/mL], or D66 (1x MIC95=130 μM). B) Fold change in RFU. Data are normalized to DMSO at time 0. C) Data normalized to account for the quenching effect of D66 on DiSC3 (5) observed in A. Mean and SEM of three biological replicates performed with technical triplicates. D) Bacillus subtilis expressing mNeonGreen-FtsZ at stationary phase in LB were placed on agar pads containing D66 at the indicated concentration (1x MIC95=89 μM). Confocal microscope images were taken after 15 minutes to ascertain whether D66 disrupted the septal localization of FtsZ.

The subject of another series is Bacillus subtilis. Kind of series: Growth inhibition in broth (MIC95). The series is classed as cell-based. As to the method: FIG. 8A-B. D66 inhibits the growth of Gram-positive bacteria in broth. A) Dose response curves monitoring staphylococcal and B. subtills growth in the presence of D66 from an OD600 of 0.01, normalized to growth in 2% DMSO after 18 hours. Mean and SEM of at least three biological replicates performed with technical triplicates. B) Table of D66 concentrations that inhibit growth. For comparison, S. Typhimurium is included.
as §1

The next series relates to RAW 264.7 cells. Kind of series: LDH release assay. The series is classed as cell-based. The method, then: FIG. 5A-C. […] Mice were euthanized 48 hours after infection. […] Significance was determined by Mann-Whitney.
LDH assays: An LDH-cytotoxicity assay kit (Abcam ab65393) was used according to the manufacturer's instructions. RAW 264.7 cells were seeded and remained uninfected or with infected as described for the CFU assay with SL1344.

Series [2] concerns staphylococcal persister cells. Kind of series: Staphylococcal persister cell viability in broth. The series is classed as cell-based. The note with it: overnight cultures in broth, D66 at MIC95. As to the method:
A-D) Overnight cultures of the indicated strains were treated at time 0 with DMSO, ciprofloxacin [4 μg/mL], vancomycin [10 μg/mL], or the corresponding MIC95 concentration of D66 (1x MIC95=130 μM, 49 μg/mL). Cultures were plated for enumeration of CFU at time points indicated. Mean and SEM of three biological replicates. E) RAW 264.7 macrophage-like cells and HeLa cells were infected with S. aureus USA300, at MOIs of 0.5 and 2.5, respectively. Cells were treated two hours after infection with DMSO (gray circle on Y axis), or dilutions of D66 from 40 μM. After 8 hours of infection, cells were lysed and plated for enumeration of CFU. Mean and SEM of biological duplicates performed with technical triplicates each with six dilutions of D66. The IC50 value that was calculatable is indicated.

SMILES strings stand for the structures. Converted amounts (≈) assume the structure as drawn.

Turning to `O=C(Nc1cc(Cl)cc(Cl)c1)N1CCCN(Cc2ccccc2)CC1` [D66], the “cell membrane rupture (PI permeability)” value with S. aureus FDA209 is recorded as “does not rupture the cell membrane”. The “absorbance and CFU of bacteria (cell lysis)” value with S. Typhimurium was “did not reduce the absorbance nor the CFU of bacteria”. Also, in series [1], the solubility is ~150 µM (≈ 56.7 µg/mL). Moreover, the “voltage across the bacterial cytoplasmic membrane” value in the series on S. aureus (FDA209) is “rapidly disrupts voltage across the bacterial cytoplasmic membrane”. For the same compound, it took 89 µM (≈ 33.7 µg/mL) to inhibit growth against Bacillus subtilis (MIC). Further, the LDH release entry in the series with RAW 264.7 cells (RAW 264.7 cells infected with S. Typhimurium SL1344, 16 hours) is reported as “reduced the percentage of cells that released LDH in a dose-dependent manner”; in the series on RAW 264.7 cells (uninfected RAW 264.7 cells, 16 hours), “little effect on LDH release”. For the same compound, the “number of viable staphylococcal persister cells” value in series [2] is listed as “did not reduce the number of viable staphylococcal persister cells in broth”.
